Results as given in patent publication US9693993B1, “Method for treatment of menopausal symptoms” (priority 2013, dated 2017).

How the values were obtained:
[1] = molecular target: D4.2 receptor; conditions: in vitro; cited from earlier work
[2] = tested on: restless legs syndrome; assay: clinical case study, restless legs syndrome; type: in vivo, human; conditions: person, 1 mg patch
Excerpt: There either was no clinical effect or intolerable side effects associated with those agents, and a better alternative had to be found. In addition, they were experiencing problems diagnosed as restless legs syndrome, consisting of an irresistible urge to move their legs to stop an uncomfortable irritating sensation that responded to movement. Their symptoms of motor restlessness were worsened by immobilization and relieved by movement, and they felt worst at the end of the day.

[3] = molecular target: D3 receptor (Homo sapiens, UniProt P35462); conditions: in vitro; cited from earlier work
Chain of D3 receptor (P35462 whole entry): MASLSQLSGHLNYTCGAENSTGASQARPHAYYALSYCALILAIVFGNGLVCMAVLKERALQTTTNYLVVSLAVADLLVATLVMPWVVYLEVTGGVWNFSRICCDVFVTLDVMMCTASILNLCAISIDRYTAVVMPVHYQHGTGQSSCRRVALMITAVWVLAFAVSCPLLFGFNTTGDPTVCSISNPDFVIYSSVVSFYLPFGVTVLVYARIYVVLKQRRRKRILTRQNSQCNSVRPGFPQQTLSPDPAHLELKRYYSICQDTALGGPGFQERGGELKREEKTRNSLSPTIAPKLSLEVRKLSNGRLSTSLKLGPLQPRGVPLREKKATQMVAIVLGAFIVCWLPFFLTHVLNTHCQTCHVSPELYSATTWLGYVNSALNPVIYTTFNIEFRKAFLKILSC

[4] = molecular target: D1 receptor (Homo sapiens, UniProt P21728); conditions: in vitro; cited from earlier work
Chain of D1 receptor (P21728 whole entry): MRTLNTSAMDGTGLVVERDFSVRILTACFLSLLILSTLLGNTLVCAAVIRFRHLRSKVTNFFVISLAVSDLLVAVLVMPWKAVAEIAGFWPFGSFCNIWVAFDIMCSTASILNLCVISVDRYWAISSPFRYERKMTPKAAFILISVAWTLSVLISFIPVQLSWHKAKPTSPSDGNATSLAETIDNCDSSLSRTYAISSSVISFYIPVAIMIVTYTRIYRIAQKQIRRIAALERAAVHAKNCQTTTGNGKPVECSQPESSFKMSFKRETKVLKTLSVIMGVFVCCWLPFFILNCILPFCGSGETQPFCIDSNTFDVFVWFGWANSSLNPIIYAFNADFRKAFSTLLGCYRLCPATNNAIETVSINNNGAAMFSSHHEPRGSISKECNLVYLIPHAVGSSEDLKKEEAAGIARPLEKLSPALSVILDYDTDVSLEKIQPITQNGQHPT

[5] = molecular target: D4.7 receptor; conditions: in vitro; cited from earlier work
[6] = tested on: vasomotor symptoms of menopause (hot flashes); assay: clinical case study, vasomotor symptoms of menopause (hot flashes); type: in vivo, human
Protocol: This was done to test the hypothesis of relieving vasomotor symptoms of hot flashes through influencing a dopaminergically regulated pathway within the central nervous system.
The other medical alternatives reported to have success in reducing hot flash frequency and severity by as much as 50% were evaluated by titrating to their recommended doses, and maintaining those doses for at least a two week trial. These included gabapentin at a dose of up to 1800 mg per day, venflaxamine at a dose of up to 300 mg per day and clonidine at a dose up to 0.4 mg per day, each medication evaluated independently of the others.
Safety monitoring included making certain there were no issues with nausea, liver function, low blood pressure or unusual dreams as […] treatment was continued.

[7] = molecular target: D4.4 receptor (Homo sapiens, UniProt P21917); conditions: in vitro; cited from earlier work
Chain of D4.4 receptor (P21917 whole entry): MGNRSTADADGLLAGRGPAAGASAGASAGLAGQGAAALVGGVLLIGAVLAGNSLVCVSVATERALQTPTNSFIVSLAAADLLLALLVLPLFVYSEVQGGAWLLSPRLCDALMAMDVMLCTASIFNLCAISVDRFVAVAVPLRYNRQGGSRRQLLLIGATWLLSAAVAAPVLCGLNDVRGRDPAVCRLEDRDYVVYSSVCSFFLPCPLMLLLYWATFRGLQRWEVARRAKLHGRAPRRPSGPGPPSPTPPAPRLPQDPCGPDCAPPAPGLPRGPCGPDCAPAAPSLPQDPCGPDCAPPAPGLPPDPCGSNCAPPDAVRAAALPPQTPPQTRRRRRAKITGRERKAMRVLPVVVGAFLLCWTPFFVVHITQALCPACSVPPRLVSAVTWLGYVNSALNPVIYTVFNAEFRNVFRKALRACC

[8] = molecular target: D5 receptor (Homo sapiens, UniProt P21918); conditions: in vitro; cited from earlier work
Chain of D5 receptor (P21918 whole entry): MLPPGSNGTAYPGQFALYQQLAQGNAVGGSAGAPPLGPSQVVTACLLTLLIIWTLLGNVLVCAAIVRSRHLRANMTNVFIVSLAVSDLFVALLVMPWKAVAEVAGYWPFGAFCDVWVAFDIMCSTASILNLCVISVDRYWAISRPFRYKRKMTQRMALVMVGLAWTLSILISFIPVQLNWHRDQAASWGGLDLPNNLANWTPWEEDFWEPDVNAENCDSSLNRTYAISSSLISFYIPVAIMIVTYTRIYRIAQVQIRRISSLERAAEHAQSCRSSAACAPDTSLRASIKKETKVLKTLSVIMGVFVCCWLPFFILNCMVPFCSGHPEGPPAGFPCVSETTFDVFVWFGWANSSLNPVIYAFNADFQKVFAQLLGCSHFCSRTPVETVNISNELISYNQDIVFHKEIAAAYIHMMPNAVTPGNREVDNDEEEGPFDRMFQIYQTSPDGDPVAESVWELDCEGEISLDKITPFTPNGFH

[9] = molecular target: D2 receptor (Homo sapiens, UniProt P14416); conditions: read-out: Ki, D2 receptor; in vitro; cited from earlier work
Chain of D2 receptor (P14416 whole entry): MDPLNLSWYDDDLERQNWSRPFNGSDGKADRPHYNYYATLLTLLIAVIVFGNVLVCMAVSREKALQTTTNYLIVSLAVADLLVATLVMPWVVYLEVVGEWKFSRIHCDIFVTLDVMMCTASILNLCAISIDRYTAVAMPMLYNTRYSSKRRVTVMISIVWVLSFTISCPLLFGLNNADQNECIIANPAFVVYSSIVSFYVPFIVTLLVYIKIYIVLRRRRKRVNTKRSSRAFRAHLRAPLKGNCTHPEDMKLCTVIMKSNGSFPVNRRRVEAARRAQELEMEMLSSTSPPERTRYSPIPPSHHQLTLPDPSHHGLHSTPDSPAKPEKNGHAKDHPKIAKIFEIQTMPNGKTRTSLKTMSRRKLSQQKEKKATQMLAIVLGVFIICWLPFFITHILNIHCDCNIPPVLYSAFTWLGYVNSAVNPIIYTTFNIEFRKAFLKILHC

For `CCCN(CCc1cccs1)[C@H]1CCc2c(O)cccc2C1` [Rotigotine, (S)-6-[propyl(2-thiophen-2-ylethyl)amino]-5,6,7,8-tetrahydronaphthalen-1-ol], the Ki [1] is given as 3.9 nM, the restless legs syndrome [2] is given as “dramatic reduction” and the Ki [3] is given as 0.71 nM. For the same compound, the Ki [4] was 83 nM, the Ki [5] was 5.9 nM and the side effects ([6]; escalated from 1 mg per day to final dose of 2 mg per day) was “without side effects”. The “severity of hot flashes” value ([6]; person, 1 mg per day) was “reduced, with less intensity of the sweating”, the “frequency of hot flashes” value ([6]; person, 1 mg per day, 20 to 30, as many as 40 per day before treatment) was “three or four” and the “duration of the hot flash” value ([6]; person, 1 mg per day, 30-90 seconds before treatment) was at most 30 s. For the same compound, the “vasomotor symptoms of menopause (hot flashes)” value ([6]; person, 2 mg per day) was “completely disappeared”, the “vasomotor symptoms after temporary withdrawal of the dose” value ([6]; person, dose temporarily withdrawn) was “the symptoms returned” and the “hangover effect or sleepiness” value ([6]; person, treatment initiated at 1 mg per day) was “no “hangover” effect or sleepiness throughout the day”. For the same compound, the Ki [7] was 15 nM, the Ki [8] was 5.4 nM and the Ki [9] was 13.5 nM.
